Assay results: ChEMBL document CHEMBL5108031, “Novel N-(4-thiocyanatophenyl)-1H-1,2,3-triazole-4-carboxamides exhibit selective cytotoxic activity at nanomolar doses towards human leukemic T-cells” (Eur J Med Chem, 2022)
The source made the active and inactive calls. No cut-off for these calls is given here.

Legend:
[1] = system: HCT-116; assay: Antiproliferative activity against human HCT-116 cells incubated for 72 hrs and measured by MTT assay; format: functional
[2] = system: HCT-116; assay: Antiproliferative activity against p53-deficient human HCT-116 cells incubated for 72 hrs and measured by MTT assay; format: functional
[3] = system: WM793; assay: Antiproliferative activity against human WM793 cells incubated for 72 hrs and measured by MTT assay; format: functional
[4] = system: HeLa; assay: Antiproliferative activity against human HeLa cells incubated for 72 hrs and measured by MTT assay; format: functional
[5] = system: KB 3-1; assay: Antiproliferative activity against human KB 3-1 cells incubated for 72 hrs and measured by MTT assay; format: functional
[6] = system: A549; assay: Antiproliferative activity against human A549 cells incubated for 72 hrs and measured by MTT assay; format: functional
[7] = system: MCF7; assay: Antiproliferative activity against human MCF7 cells incubated for 72 hrs and measured by MTT assay; format: functional
[8] = system: MDA-MB-231; assay: Antiproliferative activity against human MDA-MB-231 cells incubated for 72 hrs and measured by MTT assay; format: functional
[9] = system: SK-OV-3; assay: Antiproliferative activity against human SK-OV-3 cells incubated for 72 hrs and measured by MTT assay; format: functional
[10] = system: THP-1; assay: Antiproliferative activity against human THP-1 cells incubated for 72 hrs and measured by MTT assay; format: functional
[11] = system: K562; assay: Antiproliferative activity against human K562 cells incubated for 72 hrs and measured by MTT assay; format: functional
[12] = system: Jurkat; assay: Antiproliferative activity against human Jurkat cells incubated for 72 hrs and measured by MTT assay; format: functional
[13] = system: HaCaT; assay: Antiproliferative activity against human HaCaT cells incubated for 72 hrs and measured by MTT assay; format: functional
[14] = system: HEK293; assay: Antiproliferative activity against human HEK293 cells incubated for 72 hrs and measured by MTT assay; format: functional
[15] = system: BALB/3T3; assay: Antiproliferative activity against mouse BALB/3T3 cells incubated for 72 hrs and measured by MTT assay; format: functional
[16] = biological target: DNA topoisomerase 2-alpha (Homo sapiens, UniProt P11388); assay: Inhibition of DNA topoisomerase 2 alpha (unknown origin) measured by topoisomerase-mediated DNA relaxation assay
Chain of DNA topoisomerase 2-alpha (P11388 whole entry): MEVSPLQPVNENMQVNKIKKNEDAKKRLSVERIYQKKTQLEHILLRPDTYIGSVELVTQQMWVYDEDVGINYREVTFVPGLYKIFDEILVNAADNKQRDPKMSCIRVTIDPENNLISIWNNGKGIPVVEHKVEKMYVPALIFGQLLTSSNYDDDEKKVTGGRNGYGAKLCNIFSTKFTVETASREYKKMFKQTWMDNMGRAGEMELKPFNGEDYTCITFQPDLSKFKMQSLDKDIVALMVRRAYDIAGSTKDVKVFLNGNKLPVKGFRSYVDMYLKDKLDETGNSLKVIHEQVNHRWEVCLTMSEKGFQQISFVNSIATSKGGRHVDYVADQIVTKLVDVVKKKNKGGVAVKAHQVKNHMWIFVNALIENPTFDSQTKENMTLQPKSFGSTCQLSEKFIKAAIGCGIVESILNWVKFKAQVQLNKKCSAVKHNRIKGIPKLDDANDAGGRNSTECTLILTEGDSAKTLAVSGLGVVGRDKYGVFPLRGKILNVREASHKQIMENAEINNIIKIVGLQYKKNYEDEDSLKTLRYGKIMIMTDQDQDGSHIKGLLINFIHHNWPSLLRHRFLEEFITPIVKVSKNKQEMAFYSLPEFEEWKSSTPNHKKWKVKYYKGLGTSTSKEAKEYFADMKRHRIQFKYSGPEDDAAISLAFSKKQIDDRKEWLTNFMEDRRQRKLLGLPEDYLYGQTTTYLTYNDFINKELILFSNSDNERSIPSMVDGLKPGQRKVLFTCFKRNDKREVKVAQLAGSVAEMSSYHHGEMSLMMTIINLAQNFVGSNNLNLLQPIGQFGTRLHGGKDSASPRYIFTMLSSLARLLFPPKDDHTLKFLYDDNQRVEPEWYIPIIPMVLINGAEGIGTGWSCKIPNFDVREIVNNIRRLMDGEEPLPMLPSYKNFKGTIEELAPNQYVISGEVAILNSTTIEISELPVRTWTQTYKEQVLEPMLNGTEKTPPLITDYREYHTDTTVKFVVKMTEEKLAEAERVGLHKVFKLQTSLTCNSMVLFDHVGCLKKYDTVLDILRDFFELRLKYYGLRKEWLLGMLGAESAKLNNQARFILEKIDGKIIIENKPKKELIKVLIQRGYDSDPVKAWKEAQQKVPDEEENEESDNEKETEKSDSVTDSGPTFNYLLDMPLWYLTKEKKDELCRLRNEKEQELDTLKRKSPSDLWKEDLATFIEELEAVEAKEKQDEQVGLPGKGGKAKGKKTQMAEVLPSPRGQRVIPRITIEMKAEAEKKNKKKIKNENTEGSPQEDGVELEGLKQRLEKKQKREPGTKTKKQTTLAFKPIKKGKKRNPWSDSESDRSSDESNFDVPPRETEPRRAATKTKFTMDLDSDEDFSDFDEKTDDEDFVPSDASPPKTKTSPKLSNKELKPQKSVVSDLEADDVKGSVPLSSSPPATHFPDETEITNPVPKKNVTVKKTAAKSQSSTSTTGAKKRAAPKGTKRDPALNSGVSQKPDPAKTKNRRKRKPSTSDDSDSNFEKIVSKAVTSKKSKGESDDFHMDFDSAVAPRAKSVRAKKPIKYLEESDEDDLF

[17] = system: DNA; assay: Binding affinity to DNA (unknown origin) assessed as DNA intercalation at 1 ug/ml by measuring amount of methyl green dye replaced from DNA-methyl green complex; format: nucleic-acid assay; conditions: Homo sapiens; dose 1.0 µg/ml
[18] = system: DNA; assay: Binding affinity to DNA (unknown origin) assessed as DNA intercalation at 10 ug/ml by measuring amount of methyl green dye replaced from DNA-methyl green complex; format: nucleic-acid assay; conditions: Homo sapiens; dose 10.0 µg/ml
[19] = biological target: Heat shock protein HSP 90-alpha (Homo sapiens, UniProt P07900); assay: Inhibition of Hsp90alpha (unknown origin)
[20] = system: Jurkat; assay: Induction of apoptosis in human Jurkat cells assessed as fragmented DNA and nuclei at 0.5 uM measured after 24 hrs by Hoechst 33342/propidium iodide staining based fluorescence microscopic analysis; format: functional, cell-based
[21] = system: Jurkat; assay: Induction of apoptosis in human Jurkat cells assessed as condensed chromatin at 0.5 uM measured after 24 hrs by Hoechst 33342/propidium iodide staining based fluorescence microscopic analysis; format: functional, cell-based
[22] = system: Jurkat; assay: Induction of apoptosis in human Jurkat cells assessed as cellular membrane blebbing at 0.5 uM measured after 24 hrs by Hoechst 33342/propidium iodide staining based fluorescence microscopic analysis; format: functional, cell-based
[23] = system: Jurkat; assay: Induction of apoptosis in human Jurkat cells assessed as appearance of apoptotic bodies at 0.5 uM measured after 24 hrs by Hoechst 33342/propidium iodide staining based fluorescence microscopic analysis; format: functional, cell-based
[24] = system: Jurkat; assay: Induction of apoptosis in human Jurkat cells assessed as cell debris at 0.5 uM measured after 24 hrs by Hoechst 33342/propidium iodide staining based fluorescence microscopic analysis; format: functional
[25] = system: Jurkat; assay: Induction of apoptosis in human Jurkat cells assessed as decrease in mitochondrial membrane potential at 0.5 uM measured after 24 hrs by Rhodamine 123 fluorescence based assay; format: functional, cell-based
[26] = system: Jurkat; assay: Induction of DNA damage in human Jurkat cells assessed as tail DNA at 0.5 uM measured after 24 hrs by comet assay; format: functional
[27] = system: Jurkat; assay: Induction of DNA damage in human Jurkat cells assessed as olive tail moment at 0.5 uM measured after 24 hrs by comet assay; format: functional
[28] = system: Jurkat; assay: Induction of DNA damage in human Jurkat cells assessed as DNA fragmentation at 0.5 uM measured by Diphenylamine assay; format: functional
[29] = organism: Homo sapiens; assay: Inhibition of electrophoretic mobility of Plasmid DNA pEGFPc-1 (unknown origin) incubated for 6 hrs at 1 uM and measured by agarose gel electrophoresis method
[30] = system: DNA; assay: Binding affinity to DNA (unknown origin) assessed as DNA intercalation at 1 uM by measuring amount of methyl green dye replaced from DNA-methyl green complex; format: nucleic-acid assay; conditions: Homo sapiens
[31] = system: DNA; assay: Binding affinity to DNA (unknown origin) assessed as DNA intercalation at 10 uM by measuring amount of methyl green dye replaced from DNA-methyl green complex; format: nucleic-acid assay; conditions: Homo sapiens
[32] = system: HOP-92; assay: Antiproliferative activity against human HOP-92 cells; format: functional
[33] = system: SNB-75; assay: Antiproliferative activity against human SNB-75 cells; format: functional

Row | Structure (SMILES) | GI50 [1] | GI50 [2] | GI50 [3] | GI50 [4] | GI50 [5] | GI50 [6] | GI50 [7] | GI50 [8] | GI50 [9] | GI50 [10] | GI50 [11] | GI50 [12] | GI50 [13] | GI50 [14] | GI50 [15] | further results
1 | CCCc1c(C(=O)Nc2ccc(SC#N)cc2)nnn1-c1ccccc1 | 42.3 µM | 39.6 µM | 65.7 µM | 48.8 µM | 7.8 µM | > 100 µM | 52 µM | > 100 µM | 73.7 µM | > 100 µM | 1.4 µM | 630 nM | > 100 µM | > 100 µM | 96.9 µM | 
2 | COc1cc([C@@H]2c3cc4c(cc3[C@@H](NC(=O)c3cn(-c5ccc(Cl)cc5)nn3)[C@H]3COC(=O)[C@H]23)OCO4)cc(OC)c1OC |  |  |  |  |  |  |  |  |  |  |  |  |  |  |  | IC50 [16]: < 1000 nM
3 | CC[n+]1c(-c2ccccc2)c2cc(N)ccc2c2ccc(N)cc21 |  |  |  |  |  |  |  |  |  |  |  |  |  |  |  | Activity [17]: 24.7%; Activity [18]: 46.6%
4 | Cc1ccc(Cl)cc1-n1nnc(C(=O)Nc2ccc(SC#N)cc2)c1C | 39.6 µM | 8.2 µM | 72.8 µM | 91.3 µM | 7.8 µM | > 100 µM | 8.4 µM | 44.6 µM | 81.5 µM | > 100 µM | 5.7 µM | 680 nM | > 100 µM | 91.2 µM | 9.9 µM | 
5 | Cc1ccc(-n2nnc(C(=O)Nc3ccc(SC#N)cc3)c2C)cc1C | > 100 µM | > 100 µM | 72.4 µM | > 100 µM | 61 µM | > 100 µM | 72 µM | > 100 µM | > 100 µM | > 100 µM | 9.2 µM | 680 nM | > 100 µM | > 100 µM | 9.8 µM | 
6 | CCNC(=O)c1nnn(-c2cc(C(C)C)c(O)cc2O)c1-c1ccc(CN2CCOCC2)cc1 |  |  |  |  |  |  |  |  |  |  |  |  |  |  |  | IC50 [19]: < 5 nM
7 | COc1cccc(-n2nnc(C(=O)Nc3ccc(SC#N)cc3)c2C)c1 | > 100 µM | 39.8 µM | > 100 µM | > 100 µM | > 100 µM | > 100 µM | > 100 µM | > 100 µM | 64.6 µM | > 100 µM | 84.5 µM | > 100000 nM | > 100 µM | > 100 µM | > 100 µM | 
8 | COCc1c(C(=O)Nc2ccc(SC#N)cc2)nnn1-c1ccc(C)cc1 | 81.2 µM | 21.7 µM | 93.3 µM | > 100 µM | 53.6 µM | > 100 µM | > 100 µM | > 100 µM | 46.4 µM | > 100 µM | 42.5 µM | 4460 nM | > 100 µM | > 100 µM | 75.7 µM | 
9 | COc1cccc2c1C(=O)c1c(O)c3c(c(O)c1C2=O)C[C@@](O)(C(=O)CO)C[C@@H]3O[C@H]1C[C@H](N)[C@H](O)[C@H](C)O1 [DOXORUBICIN] | 0.76 µM | 0.5 µM | 0.9 µM | 0.76 µM | 0.74 µM | 1.1 µM | 0.82 µM | 0.76 µM | 8.8 µM | 23.1 µM | 0.7 µM | 650 nM | 0.9 µM | 0.8 µM | 0.62 µM | Activity [20]: Active; Activity [21]: Active; Activity [22]: Active; Activity [23]: Active; Activity [24]: Active; Activity [25]: Active; Activity [26]: 20.3%; Activity [27]: 5.4; Activity [28]: 64%; inhibition [29]: Active; Activity [30]: 49.1%; Activity [31]: 54.2%
10 | Cc1ccc(Cl)c(-n2nnc(C(=O)Nc3ccc(SC#N)cc3)c2C)c1 | > 100 µM | > 100 µM | > 100 µM | > 100 µM | 68 µM | > 100 µM | > 100 µM | > 100 µM | 9.6 µM | > 100 µM | 6.6 µM | 66300 nM | > 100 µM | > 100 µM | 100 µM | 
11 | Cc1ccc(-n2nnc(C(=O)Nc3cc(Cl)ccc3Cl)c2N)cc1 |  |  |  |  |  |  |  |  |  |  |  |  |  |  |  | GI50 [32]: 580 nM; TGI [32]: 5.9 µM; GI50 [33]: 580 nM; TGI [33]: 5.9 µM
